Source: ChEMBL document CHEMBL4825753 (J Med Chem, 2021)
Active and inactive are the calls of the source. The calls are words filed in the database; no cut-off is given here.

Legend:
[1] = molecular target: T1, Receptor-type tyrosine-protein kinase FLT3 (Homo sapiens, UniProt P36888); assay: Inhibition of FLT3 (unknown origin) by LC-MS analysis
T1 sequence (P36888 whole entry): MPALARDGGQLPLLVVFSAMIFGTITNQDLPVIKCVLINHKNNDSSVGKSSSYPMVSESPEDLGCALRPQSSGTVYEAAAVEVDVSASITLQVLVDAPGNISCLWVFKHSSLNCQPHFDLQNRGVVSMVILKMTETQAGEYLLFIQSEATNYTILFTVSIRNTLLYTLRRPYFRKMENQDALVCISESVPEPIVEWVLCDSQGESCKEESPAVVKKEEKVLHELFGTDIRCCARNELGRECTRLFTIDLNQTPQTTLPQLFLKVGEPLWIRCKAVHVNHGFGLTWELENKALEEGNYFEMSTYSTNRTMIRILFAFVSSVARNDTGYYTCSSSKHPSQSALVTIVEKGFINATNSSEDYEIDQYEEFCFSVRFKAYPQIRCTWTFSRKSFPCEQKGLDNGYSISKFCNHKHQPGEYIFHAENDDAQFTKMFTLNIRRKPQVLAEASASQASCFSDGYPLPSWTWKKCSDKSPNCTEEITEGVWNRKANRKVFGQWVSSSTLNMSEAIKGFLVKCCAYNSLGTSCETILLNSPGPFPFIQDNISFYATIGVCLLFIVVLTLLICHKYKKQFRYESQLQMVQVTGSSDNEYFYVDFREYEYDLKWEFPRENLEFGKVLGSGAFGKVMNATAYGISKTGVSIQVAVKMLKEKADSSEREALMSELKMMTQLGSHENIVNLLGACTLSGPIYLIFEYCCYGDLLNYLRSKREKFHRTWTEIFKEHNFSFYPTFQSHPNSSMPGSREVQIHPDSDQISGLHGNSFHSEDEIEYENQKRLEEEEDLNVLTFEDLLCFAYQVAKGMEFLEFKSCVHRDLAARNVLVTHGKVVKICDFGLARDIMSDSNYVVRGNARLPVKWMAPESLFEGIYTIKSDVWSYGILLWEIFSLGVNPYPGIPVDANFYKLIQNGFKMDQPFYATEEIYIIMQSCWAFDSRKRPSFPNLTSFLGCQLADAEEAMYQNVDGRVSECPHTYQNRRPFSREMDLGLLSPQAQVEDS

[2] = AUC in C57BL/6J mouse at 100 mg/kg, po measured up to 24 hrs; type: ADME, organism-based; design: route oral, dose 100 mg/kg, time <=24; conditions: in vivo
[3] = molecular target: T2, Tyrosine-protein kinase Mer (Homo sapiens, UniProt Q12866); assay: Inhibition of MER (unknown origin) by LC-MS analysis
T2 sequence (Q12866 whole entry): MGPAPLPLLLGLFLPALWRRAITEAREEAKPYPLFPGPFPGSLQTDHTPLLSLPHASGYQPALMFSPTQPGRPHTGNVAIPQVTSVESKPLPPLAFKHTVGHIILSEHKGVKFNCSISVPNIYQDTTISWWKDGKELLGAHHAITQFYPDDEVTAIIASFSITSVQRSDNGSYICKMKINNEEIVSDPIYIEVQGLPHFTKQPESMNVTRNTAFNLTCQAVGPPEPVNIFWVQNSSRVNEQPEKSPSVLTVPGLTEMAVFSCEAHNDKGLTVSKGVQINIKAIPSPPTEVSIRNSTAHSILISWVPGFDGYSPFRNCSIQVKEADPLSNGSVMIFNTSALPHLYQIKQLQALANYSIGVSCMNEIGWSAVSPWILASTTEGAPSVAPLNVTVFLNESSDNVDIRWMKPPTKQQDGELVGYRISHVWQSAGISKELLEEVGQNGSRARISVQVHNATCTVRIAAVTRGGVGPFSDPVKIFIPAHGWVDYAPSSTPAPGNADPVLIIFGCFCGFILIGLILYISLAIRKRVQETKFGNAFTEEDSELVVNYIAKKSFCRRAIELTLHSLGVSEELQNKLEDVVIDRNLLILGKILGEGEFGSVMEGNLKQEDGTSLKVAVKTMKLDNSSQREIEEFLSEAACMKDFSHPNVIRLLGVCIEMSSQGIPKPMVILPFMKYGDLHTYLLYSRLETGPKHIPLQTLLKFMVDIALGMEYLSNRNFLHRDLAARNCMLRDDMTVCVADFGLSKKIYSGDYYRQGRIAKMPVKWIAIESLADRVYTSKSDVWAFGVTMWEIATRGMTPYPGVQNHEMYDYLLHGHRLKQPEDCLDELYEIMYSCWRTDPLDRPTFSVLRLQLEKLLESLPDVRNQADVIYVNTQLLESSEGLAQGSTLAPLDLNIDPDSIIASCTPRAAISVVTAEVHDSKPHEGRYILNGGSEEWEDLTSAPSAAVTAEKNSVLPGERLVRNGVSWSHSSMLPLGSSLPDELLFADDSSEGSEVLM

[4] = molecular target: T3, Tyrosine-protein kinase receptor UFO (Homo sapiens, UniProt P30530); assay: Inhibition of AXL (unknown origin) by LC-MS analysis
T3 sequence (P30530 whole entry): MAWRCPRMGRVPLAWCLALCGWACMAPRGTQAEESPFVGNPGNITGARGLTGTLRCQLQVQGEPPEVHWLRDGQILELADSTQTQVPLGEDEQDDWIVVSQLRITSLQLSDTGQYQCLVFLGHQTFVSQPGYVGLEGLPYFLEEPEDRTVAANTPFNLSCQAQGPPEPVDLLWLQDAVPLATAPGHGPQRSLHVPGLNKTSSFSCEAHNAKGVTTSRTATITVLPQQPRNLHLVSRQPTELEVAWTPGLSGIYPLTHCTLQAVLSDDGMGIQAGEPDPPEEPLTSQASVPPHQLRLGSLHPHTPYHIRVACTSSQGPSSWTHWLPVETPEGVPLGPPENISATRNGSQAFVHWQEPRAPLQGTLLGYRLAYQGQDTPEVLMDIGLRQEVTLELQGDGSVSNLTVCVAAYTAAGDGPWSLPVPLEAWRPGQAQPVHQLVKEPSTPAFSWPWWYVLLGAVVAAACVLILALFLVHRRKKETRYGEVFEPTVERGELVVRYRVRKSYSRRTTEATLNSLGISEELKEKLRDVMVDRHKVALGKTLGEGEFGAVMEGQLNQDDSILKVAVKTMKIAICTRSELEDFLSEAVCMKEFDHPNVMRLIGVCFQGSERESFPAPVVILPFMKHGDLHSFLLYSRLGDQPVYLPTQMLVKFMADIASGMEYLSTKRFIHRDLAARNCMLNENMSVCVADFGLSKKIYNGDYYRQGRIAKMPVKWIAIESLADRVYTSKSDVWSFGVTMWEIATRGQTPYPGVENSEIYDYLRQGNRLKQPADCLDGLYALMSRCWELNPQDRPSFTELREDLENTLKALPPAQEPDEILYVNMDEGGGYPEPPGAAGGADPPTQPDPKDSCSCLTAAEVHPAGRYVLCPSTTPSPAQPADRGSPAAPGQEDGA

[5] = test system: BaF3; assay: Antitumour activity against mouse BaF3 cells transfected with MER implanted in C57BL/6J mouse assessed as reduction in MER phosphorylation at 30 to 100 mg/kg, po bid for 6 days by western blot analysis; type: functional, organism-based; conditions: dose 30-100 mg/kg, time 6.0 day

| IC50 [1] [nM] | AUC at 24 h [2] [µM·h] | IC50 [3] [nM] | IC50 [4] [nM] | SMILES | Activity [5] |
| --- | --- | --- | --- | --- | --- |
| 15800 | 295 | 3.16 | 79.4 | Cc1cc(-c2c(C)nn(C)c2C)ccc1-c1nnc(N(C)Cc2ccc3nccn3c2)o1 | – |
| – | 71 | – | – | Cc1cc(-c2c(C)nn(C)c2C)cnc1-c1nnc(N(C)Cc2ccc3ncc(-c4ccc(CN(C)C)cc4)n3c2)o1 | Active |
| 20000 | – | 100 | 1000 | Cc1cc(-c2c(C)nn(C)c2C)cnc1-c1nnc(N(C)Cc2ccc3nccn3c2)o1 | – |
